Measurements as given in patent US12623942B2, “Method for extracting salts and temperature- regenerated extracting composition” (ADIONICS, priority 2016, dated 2026).

Assay: Complexing constant Log K in methanol at 25° C.
Assay type: binding
Experimental: K is the complexing constant of a CEM and a […] cation in methanol, at 25° C., which is measured according to the standard method of isothermal calorimetric titration.

Row | Compound | Log K(Ba^++, MeOH, 25° C.) | Log K(Ca^++, MeOH, 25° C.) | Log K(Cs^+, MeOH, 25° C.) | Log K(K^+, MeOH, 25° C.) | Log K(Li^+, MeOH, 25° C.) | Log K(Mg^++, MeOH, 25° C.) | Log K(Na^+, MeOH, 25° C.) | Log K(Rb^+, MeOH, 25° C.) | Log K(Sr^++, MeOH, 25° C.)
1 | CC(C)(C)c1cc2c(OCC(=O)N3CCCC3)c(c1)Cc1cc(C(C)(C)C)cc(c1OCC(=O)N1CCCC1)Cc1cc(C(C)(C)C)cc(c1OCC(=O)N1CCCC1)Cc1cc(C(C)(C)C)cc(c1OCC(=O)N1CCCC1)C2 [CEM 4, 4-tert-butyl-Calix[4]arene tetrakis(N-pyrrolidinylacetamide)] | 6.8 | 7.8 | 1.0 | 5.4 | 3.0 | 1.2 | 7.2 | 3.0 | 8.1
2 | CCN(CC)C(=O)COc1c2cc(C(C)(C)C)cc1Cc1cc(C(C)(C)C)cc(c1OCC(=O)N(CC)CC)Cc1cc(C(C)(C)C)cc(c1OCC(=O)N(CC)CC)Cc1cc(C(C)(C)C)cc(c1OCC(=O)N(CC)CC)Cc1cc(C(C)(C)C)cc(c1OCC(=O)N(CC)CC)Cc1cc(C(C)(C)C)cc(c1OCC(=O)N(CC)CC)Cc1cc(C(C)(C)C)cc(c1OCC(=O)N(CC)CC)Cc1cc(C(C)(C)C)cc(c1OCC(=O)N(CC)CC)C2 [CEM 9, 4-tert-butyl-Calix[8]arene octakis(N,N-diethylacetamide)] | – | 7.2 | – | – | – | – | – | – | –
3 | CCOC(=O)COc1c2cc(C(C)(C)C)cc1Cc1cc(C(C)(C)C)cc(c1OCC(=O)OCC)Cc1cc(C(C)(C)C)cc(c1OCC(=O)OCC)Cc1cc(C(C)(C)C)cc(c1OCC(=O)OCC)Cc1cc(C(C)(C)C)cc(c1OCC(=O)OCC)C2 [CEM 11, 4-tert-Butylcalix[5]arene-pentaacetic acid pentaethyl ester] | – | – | 5.5 | 5.3 | 1.0 | – | 4.4 | 5.6 | –
